Key:
cocklebur = experiment: Test B pre/postemergence cocklebur; format: in vivo, Xanthium strumarium
Procedure, shortened: (§1)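 Herbicidal effect was estimated by eye on a ten-point control scale after plants spent twelve to sixteen days in a greenhouse following soil or foliar treatment. Foliar sprays targeted plants at one to four leaves; all doses were formulated in a non-phytotoxic solvent with surfactant.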

rape = experiment: Test B pre/postemergence rape; format: in vivo, Brassica napus
Procedure, shortened: as §1

velvetleaf = experiment: Test B pre/postemergence velvetleaf; format: in vivo, Abutilon theophrasti
Procedure, shortened: as §1

blackgrass = experiment: Test B pre/postemergence blackgrass; format: in vivo, Alopecurus myosuroides
Procedure, shortened: as §1

crabgrass = experiment: Test B pre/postemergence crabgrass; format: in vivo, Digitaria sanguinalis
Procedure, shortened: as §1

surinam grass = experiment: Test B pre/postemergence surinam grass; format: in vivo, Brachiaria decumbens
Procedure, shortened: as §1

bedstraw = experiment: Test B pre/postemergence bedstraw; format: in vivo, Galium aparine
Procedure, shortened: as §1

smallflower flatsedge = experiment: Test B flood test smallflower flatsedge; format: in vivo, Cyperus difformis
Procedure, shortened: (§2)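 Each value is a visual injury score relative to controls, with 10 meaning complete control and 0 no effect. Evaluation took place twelve to sixteen days after the 2-leaf-stage plants were treated and kept in the greenhouse.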

sugar beet = experiment: Test B pre/postemergence sugar beet; format: in vivo, Beta vulgaris
Procedure, shortened: as §1

morningglory = experiment: Test B pre/postemergence morningglory; format: in vivo, Ipomoea hederacea
Procedure, shortened: as §1

corn = experiment: Test B pre/postemergence corn; format: in vivo, Zea mays
Procedure, shortened: as §1

bamyardgrass = experiment: Test B flood test barnyardgrass; format: in vivo, Echinochloa crus-galli
Procedure, shortened: as §2

giant foxtail = experiment: Test B pre/postemergence giant foxtail; format: in vivo, Setaria faberii
Procedure, shortened: as §1

wild oat = experiment: Test B pre/postemergence wild oat; format: in vivo, Avena fatua
Procedure, shortened: as §1

duck salad = experiment: Test B flood test duck salad; format: in vivo, Heteranthera limosa
Procedure, shortened: as §2

pigweed = experiment: Test B pre/postemergence pigweed; format: in vivo, Amaranthus retroflexus
Procedure, shortened: as §1

wheat = experiment: Test B pre/postemergence wheat; format: in vivo, Triticum aestivum
Procedure, shortened: as §1

rice = experiment: Test B flood test rice; format: in vivo, Oryza sativa
Procedure, shortened: as §2

soybean = experiment: Test B pre/postemergence soybean; format: in vivo, Glycine max
Procedure, shortened: as §1

purple nutsedge = experiment: Test B pre/postemergence purple nutsedge; format: in vivo, Cyperus rotundus; conditions: Postemergence
Procedure, shortened: as §1

[1] = Preemergence, Rate 62 g/ha, scale of 0 to 10 where 0 is no effect and 10 is complete control
[2] = Preemergence, Rate 250 g/ha, scale of 0 to 10 where 0 is no effect and 10 is complete control
[3] = Preemergence, Rate 500 g/ha, scale of 0 to 10 where 0 is no effect and 10 is complete control
[4] = Rate 62 g/ha, Postemergence, scale of 0 to 10 where 0 is no effect and 10 is complete control
[5] = Rate 125 g/ha, Postemergence, scale 0 to 10
[6] = Rate 125 g/ha, Preemergence, scale of 0 to 10 where 0 is no effect and 10 is complete control
[7] = Rate 500 g/ha, Postemergence, scale 0 to 10, 0 no effect, 10 complete control
[8] = Rate 62 g/ha, headed Pre-emergence (flood test species), scale 0 to 10 (0 no effect, 10 complete control)
[9] = Rate 125 g/ha, Pre-emergence, flood test species, scale 0 to 10 where 0 is no effect and 10 is complete control
[10] = Rate 250 g/ha, Pre-emergence, flood-test species, scale 0 to 10, 0 is no effect, 10 is complete control
[11] = Rate 500 g/ha, Pre-emergence, flood test species, scale 0 to 10 (0 no effect, 10 complete control)

CC(C)N(C(=O)n1oc(=O)n(CCC2OCCCO2)c1=O)c1ccc(F)cc1 [Compound 255]
8: B. signalgrass plant response rating (surinam grass; [7]) | Bedstraw plant response rating (bedstraw; [7]) | Plant response rating (0 to 10; 0 is no effect, 10 is complete control), Morningglory (morningglory; Rate 250 g/ha, Postemergence) | Morningglory plant response rating (morningglory; [7]) | Plant response rating, Corn (corn; [3]) | Giant foxtail plant response rating (giant foxtail; [1]) | Giant foxtail plant response rating (giant foxtail; [7]) | Redroot pigweed plant response rating (pigweed; [7]) | Plant response rating, Wheat (wheat; [3]) | Wheat plant response rating (wheat; [7])
1: Velvetleaf plant response rating (velvetleaf; [7])
7: Plant response rating, Velvetleaf (velvetleaf; [3]) | Plant response rating (0 to 10; 0 is no effect, 10 is complete control), Blackgrass (blackgrass; Rate 250 g/ha, Postemergence) | Crabgrass plant response rating (crabgrass; [2]) | Plant response rating, Sugarbeets (sugar beet; [3])
4: Wild oats plant response rating (wild oat; [7]) | Wheat plant response rating (wheat; [2])
2: Cocklebur plant response rating (cocklebur; [7]) | Blackgrass plant response rating (blackgrass; [5]) | Plant response rating (0 to 10; 0 is no effect, 10 is complete control), Crabgrass (crabgrass; Rate 250 g/ha, Postemergence) | B. signalgrass plant response rating (surinam grass; [6]) | Plant response rating (0 to 10; 0 is no effect, 10 is complete control), B. signalgrass (surinam grass; Rate 250 g/ha, Postemergence) | Plant response rating (0 to 10; 0 is no effect, 10 is complete control), Bedstraw (bedstraw; Rate 250 g/ha, Postemergence) | Wild oats plant response rating (wild oat; [6]) | Redroot pigweed plant response rating (pigweed; [6]) | Plant response rating (0 to 10; 0 is no effect, 10 is complete control), Redroot pigweed (pigweed; Rate 250 g/ha, Postemergence)
9: Blackgrass plant response rating (blackgrass; [7]) | Plant response rating, Crabgrass (crabgrass; [3]) | Plant response rating, B. signalgrass (surinam grass; [3]) | Giant foxtail plant response rating (giant foxtail; [6])
5: Plant response rating, Rape (rape; [3]) | Velvetleaf plant response rating (velvetleaf; [2]) | Wild oats plant response rating (wild oat; [2]) | Redroot pigweed plant response rating (pigweed; [2])
6: Sugarbeets plant response rating (sugar beet; [2]) | Corn plant response rating (corn; [7]) | Plant response rating (0 to 10; 0 is no effect, 10 is complete control), Giant foxtail (giant foxtail; Rate 250 g/ha, Postemergence) | Soybean plant response rating (soybean; [7]) | Nutsedge plant response rating (purple nutsedge; Rate 500 g/ha, scale 0 to 10, 0 no effect, 10 complete control)
3: Plant response rating (0 to 10; 0 is no effect, 10 is complete control), Rape (rape; Rate 250 g/ha, Postemergence) | Rape plant response rating (rape; [7]) | Crabgrass plant response rating (crabgrass; [6]) | Crabgrass plant response rating (crabgrass; [7]) | B. signalgrass plant response rating (surinam grass; [2]) | Sugarbeets plant response rating (sugar beet; [6]) | Sugarbeets plant response rating (sugar beet; [7])
0: Cocklebur plant response rating (cocklebur; [1]) | Cocklebur plant response rating (cocklebur; [2]) | Plant response rating, Cocklebur (cocklebur; [3]) | Cocklebur plant response rating (cocklebur; [4]) | Cocklebur plant response rating (cocklebur; [5]) | Cocklebur plant response rating (cocklebur; [6]) | Plant response rating (0 to 10; 0 is no effect, 10 is complete control), Cocklebur (cocklebur; Rate 250 g/ha, Postemergence) | Rape plant response rating (rape; [1]) | Rape plant response rating (rape; [2]) | Rape plant response rating (rape; [6]) | Velvetleaf plant response rating (velvetleaf; [1]) | Velvetleaf plant response rating (velvetleaf; [6]) | Blackgrass plant response rating (blackgrass; [4]) | Crabgrass plant response rating (crabgrass; [1]) | B. signalgrass plant response rating (surinam grass; [1]) | B. signalgrass plant response rating (surinam grass; [4]) | B. signalgrass plant response rating (surinam grass; Rate 125 g/ha, Postemergence, scale 0 (no effect) to 10 (complete control)) | Bedstraw plant response rating (bedstraw; [1]) | Bedstraw plant response rating (bedstraw; [2]) | Plant response rating, Bedstraw (bedstraw; [3]) | Bedstraw plant response rating (bedstraw; [4]) | Bedstraw plant response rating (bedstraw; [5]) | Bedstraw plant response rating (bedstraw; [6]) | S. Flatsedge plant response rating (smallflower flatsedge; [8]) | S. Flatsedge plant response rating (smallflower flatsedge; [9]) | S. Flatsedge plant response rating (smallflower flatsedge; [10]) | S. Flatsedge plant response rating (smallflower flatsedge; [11]) | Sugarbeets plant response rating (sugar beet; [1]) | Morningglory plant response rating (morningglory; [1]) | Morningglory plant response rating (morningglory; [2]) | Plant response rating, Morningglory (morningglory; [3]) | Morningglory plant response rating (morningglory; [6]) | Corn plant response rating (corn; [1]) | Corn plant response rating (corn; [2]) | Corn plant response rating (corn; [4]) | Corn plant response rating (corn; [5]) | Corn plant response rating (corn; [6]) | Plant response rating (0 to 10; 0 is no effect, 10 is complete control), Corn (corn; Rate 250 g/ha, Postemergence) | Barnyardgrass plant response rating (bamyardgrass; [8]) | Barnyardgrass plant response rating (bamyardgrass; [9]) | Barnyardgrass plant response rating (bamyardgrass; [10]) | Barnyardgrass plant response rating (bamyardgrass; [11]) | Wild oats plant response rating (wild oat; [1]) | Ducksalad plant response rating (duck salad; [8]) | Ducksalad plant response rating (duck salad; [9]) | Ducksalad plant response rating (duck salad; [10]) | Ducksalad plant response rating (duck salad; [11]) | Redroot pigweed plant response rating (pigweed; [1]) | Wheat plant response rating (wheat; [1]) | Wheat plant response rating (wheat; [6]) | Rice plant response rating (rice; [8]) | Rice plant response rating (rice; [9]) | Rice plant response rating (rice; [10]) | Rice plant response rating (rice; [11]) | Soybean plant response rating (soybean; [1]) | Soybean plant response rating (soybean; [2]) | Plant response rating, Soybean (soybean; [3]) | Soybean plant response rating (soybean; [6]) | Plant response rating (0 to 10; 0 is no effect, 10 is complete control), Nutsedge (purple nutsedge; Rate 250 g/ha)
10: Blackgrass plant response rating (blackgrass; [1]) | Blackgrass plant response rating (blackgrass; [2]) | Plant response rating, Blackgrass (blackgrass; [3]) | Blackgrass plant response rating (blackgrass; [6]) | Giant foxtail plant response rating (giant foxtail; [2]) | Plant response rating, Giant foxtail (giant foxtail; [3]) | Plant response rating, Wild oats (wild oat; [3]) | Plant response rating, Redroot pigweed (pigweed; [3])

— patent US6737383B1, “Herbicidal oxadiazolidines” (priority 1999, dated 2004)
